Experiments:
[1] = tested on: sourgrass; experiment: Test D sourgrass; type: in vivo, Trichachne insularis; conditions: Preemergence, 0 to 100 scale
How it was run: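 Seeds were sown in greenhouse pots, one species per pot or compartment. Compounds were in a non-phytotoxic solvent mixture with surfactant; preemergence applications went on the sandy loam surface within one day of planting. Injury was rated visually after 14 to 21 days, 0 (none) to 100 (complete control).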

[2] = tested on: velvetleaf; experiment: Test C postemergence velvetleaf; type: in vivo, Abutilon theophrasti; conditions: 0 to 100 scale, 0 no effect, 100 complete control
Protocol: (§1) Compounds evaluated in this test were formulated in a non-phytotoxic solvent mixture which included a surfactant and applied to plants that were grown for various periods of time before treatment (postemergence application). A mixture of sandy loam soil and greenhouse potting mix in a 60:40 ratio was used for the postemergence test.
(§2) Plantings of these crops and weed species were adjusted to produce plants of appropriate size for the postemergence test. All plant species were grown using normal greenhouse practices. Crop and weed species include arrowleaf sida (Sida rhombifolia), barnyardgrass (Echinochloa crus-galli), cocklebur (Xanthium strumarium), common ragweed (Ambrosia elatior), corn (Zea mays), cotton (Gossypium hirsutum), eastern black nightshade (Solanum ptycanthum), fall panicum (Panicum dichotomiflorum), field bindweed (Convolvulus arvensis), giant foxtail (Setaria faberii), hairy beggarticks (Bidens pilosa), ivyleaf morningglory (Ipomoea hederacea), johnsongrass (Sorghum halepense), ladysthumb smartweed (Polygonum persicaria), lambsquarters (Chenopodium album), large crabgrass (Digitaria sanguinalis), purple nutsedge (Cyperus rotundus), redroot pigweed (Amaranthus retroflexus), soybean (Glycine max), surinam grass (Brachiaria decumbens), velvetleaf (Abutilon theophrasti) and wild poinsettia (Euphorbia heterophylla).
(§3) Treated plants and untreated controls were maintained in a greenhouse for approximately 14, to 21 days, after which all treated plants were compared to untreated controls and visually evaluated. Plant response ratings, summarized in Table C, were based upon a 0 to 100 scale where 0 was no effect and 100 was complete control. A dash response (−) means no test result.

[3] = tested on: johnsongrass; experiment: Test C postemergence johnsongrass; type: in vivo, Sorghum halepense; conditions: 0 to 100 scale, 0 no effect, 100 complete control
How it was run: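 Compounds in a non-phytotoxic solvent with surfactant were sprayed postemergence on greenhouse-grown plants in 60:40 sandy loam/potting mix. After about 14 to 21 days, visual ratings against untreated controls on a 0 (no effect) to 100 (complete control) scale.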

[4] = tested on: fall panicum; experiment: Test C postemergence fall panicum; type: in vivo, Panicum dichotomiflorum; conditions: 0 to 100 scale, 0 no effect, 100 complete control
Protocol: as §1, §2, §3

[5] = tested on: cocklebur; experiment: Test C postemergence cocklebur; type: in vivo, Xanthium strumarium; conditions: 0 to 100 scale, 0 no effect, 100 complete control
Protocol: as §1, §2, §3

[6] = tested on: purple nutsedge; experiment: Test C postemergence purple nutsedge; type: in vivo, Cyperus rotundus; conditions: 0 to 100 scale, 0 no effect, 100 complete control
Protocol: as §1, §2, §3

[7] = tested on: Setaria faberii (SETFA); experiment: Test F preemergence, alone and in mixture with rimsulfuron, SETFA; type: in vivo; conditions: 21 days after treatment, 0-100 scale
Protocol: Abutilon theophrasti (ABUTH), Chenopodium album (CHEAL), Amaranthus rudis (AMATA), Setaria faberii (SETFA), Panicum dichotomiflorum (PANDI), and Digitaria sanguinalis (DIGSA) were grown from seed in pots of an artificial potting mixture in a greenhouse. Compounds of the present invention were applied at 70 and 105 g ai/ha preemergence. Rimsulfuron was applied at 8.8 and 17.5 g ai/ha. Mixtures of the compounds of the present invention and rimsulfuron were also applied.
Following application, the plants were maintained by watering as needed. A fertilizer solution of Peter's 20-20-20 (10 pounds/5 gallons of water) plus Sprint 330, a Iron Chelate micronutrient, (113.5 grams/5 gallons of water) was injected into the water with an Anderson fertilizer injection system to provide approximately 219 ppm of nitrogen with each watering. Artificial lighting was used to supplement natural light to produce a 14 hour photoperiod and: an additional one hour light period was used between 1:00 am to 2:00 am for a night interruption. Greenhouse temperatures were targeted for 27° C. in the day and 21° C. at night. At 21 days after treatment, all plants were evaluated for injury as compared to control plants that were sprayed only with non-phytotoxic solvent.
Colby's equation was used to calculate the expected additive herbicidal effect of the mixtures of Compound 21 and the mixture partners listed above. […]

[8] = Rate 64 g/ha, 0 no injury, 100 complete control

Q: Which results are given for `Cc1ccc(-n2c(=O)on(C(=O)N(c3ccc(F)cc3F)C(C)C)c2=O)c(C)c1` [Compound 24]?
A: Plant response rating, Sourgrass ([1]; Rate 32 g/ha, 0 no injury, 100 complete control): 40; Plant response rating, Sourgrass [1, 8]: 85; Sourgrass plant response rating [1, 8]: 100; Sourgrass plant response rating ([1]; Rate 125 g/ha, 0 no injury, 100 complete control): 100; Plant response rating, Sourgrass ([1]; Rate 250 g/ha): 100; Plant response rating, Sourgrass ([1]; Rate 500 g/ha): 100

Q: How did the “Plant response rating, Velvetleaf” value ([2]; Rate 140 g/ha) turn out when `CC(C)N(C(=O)n1oc(=O)n(C(C)C)c1=O)c1ccccc1` [Compound 113] was run?
A: 0

Q: And the “Plant response rating, Velvetleaf” value ([2]; Rate 280 g/ha)?
A: 0

Q: What about the “Plant response rating, Velvetleaf” value ([2]; Rate 560 g/ha) of the same compound?
A: 60

Q: And the “Plant response rating, Velvetleaf” value ([2]; Rate 1120 g/ha)?
A: 75

Q: What about the “Plant response rating, Johnsongrass” value ([3]; Rate 140 g/ha) of the same compound?
A: 0

Q: And the “Plant response rating, Johnsongrass” value ([3]; Rate 280 g/ha)?
A: 20

Q: And the “Plant response rating, Johnsongrass” value ([3]; Rate 560 g/ha)?
A: 60

Q: And the “Plant response rating, Johnsongrass” value ([3]; Rate 1120 g/ha)?
A: 95

Q: And the “Plant response rating Fall panicum” value ([4]; Rate 140 g/ha)?
A: 60

Q: And the “Plant response rating Fall panicum” value ([4]; Rate 280 g/ha)?
A: 80

Q: What about the “Plant response rating Fall panicum” value ([4]; Rate 560 g/ha) of the same compound?
A: 85

Q: What about the “Plant response rating Fall panicum” value ([4]; Rate 1120 g/ha) of the same compound?
A: 85

Q: What about the “Plant response rating, Cocklebur” value ([5]; Rate 140 g/ha) of the same compound?
A: 5

Q: And the “Plant response rating, Cocklebur” value ([5]; Rate 280 g/ha)?
A: 50

Q: And the “Plant response rating, Cocklebur” value ([5]; Rate 560 g/ha)?
A: 50

Q: What about the “Plant response rating, Cocklebur” value ([5]; Rate 1120 g/ha) of the same compound?
A: 50

Q: What about the “Plant response rating, Purple nutsedge” value ([6]; Rate 140 g/ha) of the same compound?
A: 0

Q: And the “Plant response rating, Purple nutsedge” value ([6]; Rate 280 g/ha)?
A: 10

Q: What about the “Plant response rating, Purple nutsedge” value ([6]; Rate 560 g/ha) of the same compound?
A: 0

Q: And the “Plant response rating, Purple nutsedge” value ([6]; Rate 1120 g/ha)?
A: 10

Q: And the “SETFA Observed” value ([7]; Alone: Cmpd. rate 70, Rimsulfuron 0)?
A: 60%

Q: And the “SETFA Observed” value ([7]; Alone: Cmpd. rate 105, Rimsulfuron 0)?
A: 65%

Reference: patent US6737383B1, “Herbicidal oxadiazolidines” (priority 1999, dated 2004)
